Measurements from patent publication US20250092067A1, “APT1 and APT2 Inhibitors and Uses Thereof” (Cornell University, priority 2021, published 2025).
pIC50: −log10 of the molar value. Where “and” joins values, the source holds several entries; their conditions need not be identical. Equal entries are not always repeated. Where two headings read alike, the source gives them in different places.

Legend:
APT2 [1] = biological target: T1, APT2 (Homo sapiens, UniProt O95372); assay: APT2 enzymatic assay, resorufin acetate as fluorogenic substrate; type: biochemical; design: made in house; host or cells: E. coli BL21 (DE3)
SMAD2 palmitoylation = SMAD2 palmitoylation in HEK 293T cells (Alk14 labeling, in-gel fluorescence); type: cell-based; conditions: inhibitors at 25 μM, 6 h
STAT3 palmitoylation [2] = assay: STAT3 palmitoylation in HEK 293T cells transfected with STAT3, APT2 and DHHC7; type: cell-based; conditions: inhibitors at 25 μM for 16 hours
HEK 293T cells = assay: Cell viability of HEK 293T cells; conditions: at 50 mM (so in the source)
APT1 [3] = biological target: T2, APT1 (Homo sapiens, UniProt O75608); assay: APT1 enzymatic assay, resorufin acetate as fluorogenic substrate; type: biochemical; conditions: for IC50: read-out: IC50 (μM) APT1
T2 construct: made in house; host or cells: E. coli BL21 (DE3)

DSS induced colitis = assay: Dextran sodium sulfate (DSS) induced colitis model; type: in vivo, mice; conditions: for lengths of the colons compared to the control groups / colon length longer than the control group / colon length difference to control: 50 mg/kg intraperitoneal; for lengths of the colons compared to the control groups: 2.5% DSS, all groups; for body weight loss / colon length longer than the control group: female mice; for difference in body weight / colon length difference to control: male mice
STAT3 palmitoylation [4] = assay: STAT3 palmitoylation in HEK 293T cells expressing STAT3 and DHHC7 (endogenous APT2); type: cell-based; conditions: 16-hour treatment; for palmitoylation signal of STAT3: 50 μM
off target proteins = assay: TAMRA-FP ABPP in APT2 spiked cell lysate, other bands (off targets); type: binding; conditions: FIG. 8
APT2 [5] = biological target: T1, APT2; assay: Competitive in vitro ABPP with TAMRA-FP, cell lysate spiked with APT2; type: binding; design: made in house; host or cells: E. coli BL21 (DE3); conditions: for inhibition at 90 µM: inhibitor at 90 μM
APT1 [6] = biological target: T2, APT1; assay: Competitive in vitro ABPP with TAMRA-FP, cell lysate spiked with APT1; type: binding; conditions: qualitative, FIG. 6C
APT2 [7] = biological target: T1, APT2; assay: Gel filtration assay to identify covalent inhibitors (TAMRA-FP labeling); type: biochemical; design: expressed in transfected cells; host or cells: HEK 293T
[8] = 50 mg/kg daily injection
[9] = Example 3 (FIG. 4), 15 min pre-incubation
[10] = Example 3 (FIG. 4), 15 min pre-incubation, read-out: IC50 APT2
[11] = Table 1, resorufin acetate as the substrate, read-out: IC50 (μM) APT2
[12] = Table 2, class symbols, read-out: IC50 (μM) APT2
[13] = Table 1, resorufin acetate as the substrate
[14] = read-out: inhibition of TAMRA-FP fluorescent labeling of APT2

T1 sequence (O95372 whole entry): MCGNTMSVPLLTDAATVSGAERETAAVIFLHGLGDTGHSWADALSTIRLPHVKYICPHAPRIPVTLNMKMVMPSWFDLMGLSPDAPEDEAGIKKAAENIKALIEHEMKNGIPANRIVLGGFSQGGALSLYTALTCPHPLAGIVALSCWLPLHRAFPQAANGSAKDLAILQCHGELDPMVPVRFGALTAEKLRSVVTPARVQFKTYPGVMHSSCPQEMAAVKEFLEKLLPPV
T2 sequence (O75608 whole entry): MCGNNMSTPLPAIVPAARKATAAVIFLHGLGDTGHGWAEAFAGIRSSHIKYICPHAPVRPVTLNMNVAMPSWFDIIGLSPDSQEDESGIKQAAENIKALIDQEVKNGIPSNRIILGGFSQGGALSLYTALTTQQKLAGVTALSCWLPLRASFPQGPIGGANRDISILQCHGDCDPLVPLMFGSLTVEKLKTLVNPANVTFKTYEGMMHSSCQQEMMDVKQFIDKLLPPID

Row | SMILES | IC50 (APT2 [1]; [11]) [µM] | IC50 (APT2 [1]; [12]) [µM] | IC50 (APT1 [3]; [13]) [µM] | IC50 (APT1 [3]; Table 2, class symbols) [µM] | other results
1 | COc1ccc(N2CCN(C(=O)c3ccc(-c4ccccc4B(O)O)s3)CC2)cc1 [KW5175, (2-(5-(4-(4-methoxyphenyl)piperazine-1-carbonyl)thiophen-2-yl)phenyl)boronic acid] | – | – | – | – | IC50 APT2 (APT2 [1]; [9]): much less potent
2 | COc1ccc(N2CCN(C(=O)c3cc(B(O)O)cs3)CC2)cc1 [KW5192, (5-(4-(4-Methoxyphenyl)piperazine-1-carbonyl)thiophen-3-yl)boronic acid] | – | – | – | – | pIC50 (APT2 [1]; [10]): 5.96
3 | COc1ccc(N2CCN(C(=O)c3cc4cc(B(O)O)c5ccccc5c4s3)CC2)cc1 [KW05129] | 0.079 | < 0.1 | 0.19 | 0.1 to 1 | SMAD2 palmitoylation level (SMAD2 palmitoylation): slightly better than ML349; time-dependent inhibition of APT2 (APT2 [1]; pre-incubation 30 min versus standard): not observed; APT2 IC50 lower than that of ML349 (APT2 [1]; relative to ML349): 8.54 fold; STAT3 palmitoylation level (acylation normalized by STAT3 protein) (STAT3 palmitoylation [2]): slightly better than ML349; effect on cell viability (HEK 293T cells): no effect
4 | O=C(CN1CCN(C(=O)c2ccco2)CC1)Nc1cc(C(F)(F)F)ccc1Cl [ML348, reference compound] | > 200 | > 40 | – | – | –
5 | CCCOc1ccc(N2CCN(C(=O)c3cc4c(s3)-c3ccccc3S(=O)(=O)C4)CC2)cc1 [APT-MY1] | 0.836 | 0.1 to 1 | > 200 | > 40 | –
6 | CCCCCCCCNC(=O)c1cc2c(s1)-c1ccccc1S(=O)(=O)C2 [APT-MY7, N-octyl-4H-thieno[3,2-c]thiochromene-2-carboxamide 5,5-dioxide] | > 200 | > 40 | > 200 | > 40 | –
7 | COc1ccc(N2CCN(C(=O)c3cc4c(s3)-c3ccccc3S(=O)(=O)C4)CC2)cc1 [ML349, reference compound] | 0.675 | 0.1 to 1 | > 200 | > 40 | lengths of the colons compared to the control groups (DSS induced colitis): significant increase; body weight loss (DSS induced colitis): less severe; colon length longer than the control group (DSS induced colitis): 1.4 cm; difference in body weight (DSS induced colitis): no statistically significant difference; colon length difference to control (DSS induced colitis): ~0.5 cm; palmitoylation signal of STAT3 (STAT3 palmitoylation [4]): slightly increased; change of fluorescent intensity in bands other than APT2 (off target reaction) (off target proteins): only seen in the APT2 band; STAT3 palmitoylation level (acylation normalized by STAT3 protein) (STAT3 palmitoylation [2]): increase STAT3 palmitoylation levels; inhibition at 90 µM (APT2 [5]; [14]): ~70%; inhibition at 270 µM (APT2 [5]; inhibitor at 270 μM, read-out: inhibition of TAMRA-FP fluorescent labeling of APT2): ~70%; effect on cell viability (HEK 293T cells): no effect; APT2 selectivity / inhibition of APT1 (APT1 [3]; qualitative, FIG. 4): selective for APT2
8 | CCCCCCN1CCN(C(=O)c2cc3c(s2)-c2ccccc2S(=O)(=O)C3)CC1 [APT-MY4, (5,5-dioxido-4H-thieno[3,2-c]thiochromen-2-yl) (4-hexylpiperazin-1-yl) methanone] | 3.99 | 1 to 40 | > 200 | > 40 | –
9 | COc1ccc(N2CCN(C(=O)c3cc4cc(O)c5ccccc5c4s3)CC2)cc1 [KW5130, (5-Hydroxynaphtho[1,2-b]thiophen-2-yl) (4-(4-methoxyphenyl)piperazin-1-yl) methanone] | – | – | – | – | pIC50 (APT2 [1]; [10]): ~5.30
10 | COc1ccc(N2CCN(C(=O)c3cc4c(s3)-c3ccccc3[S+]([O-])C4)CC2)cc1 (centres unmarked) [APT-MY8] | – | – | > 200 | > 40 | –
11 | COc1ccc(N2CCN(C(=O)c3cc4cc(B(O)O)c5ccccc5c4s3)CC2)cc1 [KW5129, (2-(4-(4-Methoxyphenyl)piperazine-1-carbonyl)naphtho[1,2-b]thiophen-5-yl)boronic acid] | – | – | – | – | lengths of the colons compared to the control groups (DSS induced colitis): significant increase; body weight loss (DSS induced colitis): less severe; colon length longer than the control group (DSS induced colitis): 1.4 cm; difference in body weight (DSS induced colitis): no statistically significant difference; colon length difference to control (DSS induced colitis): ~0.5 cm; inhibition of APT1 in competitive ABPP (APT1 [6]): could also inhibit APT1; palmitoylated STAT3 (STAT3 palmitoylation [4]; 25 μM): significant increase; palmitoylation signal of STAT3 (STAT3 palmitoylation [4]): more potent; mode of APT2 inhibition (covalent or non-covalent) (APT2 [7]; from gel filtration assay): non-covalent inhibitor; TAMRA-FP fluorescent labeling of APT2 after gel filtration (APT2 [7]; lysate treated with inhibitor, passed over size exclusion column): almost complete fluorescent labeling after just one gel filtration; change of fluorescent intensity in bands other than APT2 (off target reaction) (off target proteins): only seen in the APT2 band; pIC50 (APT2 [1]; [10]): 7.10; more potent at inhibiting APT2 compared with ML349 (APT2 [1]; relative to ML349): ~9 times; inhibition at 90 µM (APT2 [5]; [14]): ~90%; inhibition of TAMRA-FP fluorescent labeling of APT2 (APT2 [5]; inhibitor at 270 μM): almost completely abolished; APT1 IC50 higher than APT2 IC50 (APT1 [3]; APT1 IC50 versus APT2 IC50): about 5.2 fold; pIC50 (APT1 [3]; Example 3 (FIG. 4), 15 min pre-incubation, read-out: IC50 APT1): 6.39; tolerability in mice [8]: well tolerated
12 | CCCCCCCCc1ccc(NC(=O)c2cc3c(s2)-c2ccccc2S(=O)(=O)C3)cc1 [APT-MY6, N-(4-octylphenyl)-4H-thieno[3,2-c]thiochromene-2-carboxamide 5,5-dioxide] | > 200 | > 40 | > 200 | > 40 | –
13 | COc1ccc(N2CCN(C(=O)c3ccc(-c4ccccc4B(O)O)s3)CC2)cc1 [KW05175] | 16.1 | 1 to 40 | – | – | –
14 | CCCCCCOc1ccc(N2CCN(C(=O)c3cc4c(s3)-c3ccccc3S(=O)(=O)C4)CC2)cc1 [APT-MY2] | 2.03 | 1 to 40 | > 200 | > 40 | –
15 | CCCOc1ccc(N2CCN(C(=O)c3cc4c(s3)-c3ccccc3S(=O)(=O)C4)CC2)cc1 [MY1, (5,5-Dioxido-4H-thieno[3,2-c]thiochromen-2-yl) (4-(4-propoxyphenyl)piperazin-1-yl) methanone] | – | – | – | – | IC50 APT2 (APT2 [1]; [9]): did not improve the potency
16 | COc1ccc(N2CCN(C(=O)c3cc4cc(S(=O)(=O)F)c5ccccc5c4s3)CC2)cc1 [KW05191] | – | – | – | – | IC50 (APT2 [1]; IC50 (μM) APT2): 1.77 µM and 1 to 40 µM
17 | CCCNC(=O)c1cc2c(s1)-c1ccccc1S(=O)(=O)C2 [APT-MY3, N-Propyl-4H-thieno[3,2-c]thiochromene-2-carboxamide 5,5-dioxide] | > 200 | > 40 | > 200 | > 40 | –
18 | Cc1ccc(NC(=O)c2cc3c(s2)-c2ccccc2S(=O)(=O)C3)cc1 [APT-MY5, N-(p-tolyl)-4H-thieno[3,2-c]thiochromene-2-carboxamide 5,5-dioxide] | > 200 | > 40 | > 200 | > 40 | –
19 | COc1ccc(N2CCN(C(=O)c3cc4cc(S(=O)(=O)F)c5ccccc5c4s3)CC2)cc1 [KW5191, 2-(4-(4-Methoxyphenyl)piperazine-1-carbonyl)naphtho[1,2-b]thiophene-5-sulfonyl fluoride] | – | – | – | – | pIC50 (APT2 [1]; IC50 APT2): 5.74
20 | CCCCCCOc1ccc(N2CCN(C(=O)c3cc4c(s3)-c3ccccc3S(=O)(=O)C4)CC2)cc1 [MY2, (5,5-dioxido-4H-thieno[3,2-c]thiochromen-2-yl) (4-(4-(hexyloxy)phenyl)piperazin-1-yl) methanone] | – | – | – | – | IC50 APT2 (APT2 [1]; [9]): did not improve the potency
21 | COc1ccc(N2CCN(C(=O)c3cc(B(O)O)cs3)CC2)cc1 [KW05192] | 1.06 | 1 to 40 | – | – | –
